Tests used:
Pg (ATCC 49417) = test: Pg proliferation measured by OD600 under HCA; format: cell-based, Porphyromonas gingivalis; conditions: HCA at 0.1 and 10 μM; after 48 and 72 hrs vs untreated controls
Experimental: Pg (ATCC 49417), a key pathogen of periodontitis, was cultured at 24 well-plates with BHI medium at 90% N2, 5% H2, 5% CO2. HCA at 0.1 and 10 μM was applied.

[1] = system: primary human gingival fibroblasts (HGF); test: MTT toxicity assay; format: cell-based; conditions: HCA from 0.1 to 50 μM; 24 and 48 hours
[2] = system: human monocyte-derived macrophages (MDM) using THP-1 cells; test: Proinflammatory cytokines after Pg-LPS challenge (qRT-PCR, ELISA); format: cell-based
Experimental: Sg metabolites modulate proinflammatory cytokines in human periodontal associated cells in vitro. Sg were cultured in a total of 40 ml DMEM for 24 hrs. After 200 μl of Sg suspension reached 0.2 at OD600 value in a 96-well plate, the Sg metabolites were collected by centrifugation at 3000 g for 10 min and then filtered through a 0.22 μm filter. No toxicity of Sg metabolites was detected using an MTT assay on primary human bone marrow mesenchymal stromal cells (BMSCs) and primary human gingival fibroblasts (HGF) (data no shown). The modulation of Sg metabolites on inflammatory cytokines was tested using human monocyte-derived macrophages (MDM) and HGF. The MDM were generated by inducing a human macrophage cell line (THP-1) using PMA at 10 ng/ml. The MDM at 2×10^6 cells/per well and HGF at 2×10^4 cells/per well were cultured in 24-well plates using DMEM with 10% FBS and 1% PS. The Sg metabolites at 1 and 5% v/v were added and incubated for 24 hrs before challenging with Pg-LPS at 100 ng/ml.
Human monocyte-derived macrophages (MDM) using THP-1 cells and HGF were cultured in a 24-well plate with DMEM and challenged with Pg-LPS at 100 ng/ml.
In addition, freshly isolated epidydimal white adipose tissues (eWAT) from mice on a HFD for 16 weeks were minced and cultured in 24-well plates and treated with HCA at 0.5 and 1.0 μM in DMEM/F-12 containing 10% cosmic calf serum (CCS) and 1% penicillin-streptomycin (basal growth media, BGM). […] These preliminary data are strong evidence that Sg metabolites have the potential to modulate host inflammatory responses and attenuate inflammation.
HCA promotes proliferation of health related bacteria and inhibits proliferation and attachment of periodontopathogenic bacteria. Promoting the growth of health-related commensal bacteria while inhibiting proliferation and attachment of pathogenic bacteria may be effective at preventing or treating periodontal inflammation. To determine if HCA has an effect on the growth properties of commensal bacteria and periodontopathogens, HCA at different concentrations was added to aerobic culture of S. mitis and S. oralis and anaerobic culture of T. denticola as described in our published manuscript (see detail in Shu et al, Journal of Periodontology, 2022). FIGS. 18A-C summarize the functions of HCA on the proliferation of specific commensal and pathogenic bacteria. […] Furthermore, the function of HCA on P. gingivalis attachment, a key parameter of adhesion and biofilm formation by periodontopathogenic bacteria, was investigated. […] Attachment measurements of P. gingivalis were performed based on our published studies (see detail in Shu et al, Journal of Periodontology, 2022). […] To test the biocompatibility and anti-inflammatory properties of HCA, human monocyte-derived macrophages (MDM) and gingival fibroblasts (HGF) were prepared as described in our previous studies. The cells were then treated with HCA from 0.1 to 50 μM. No toxicity was observed after treatment with different concentrations of HCA in either cell type using an MTT assay (FIGS. 19A and B, left column). The anti-inflammatory function of HCA on MDM and HGF after exposure to P. gingivalis lipopolysaccharide (PG-LPS) was investigated. […] HCA mitigates inflammation and affects the composition of microbiomes in vivo. Recent studies investigated whether HCA modulates periodontal inflammation using a mouse model. To induce periodontal inflammation, a total of 1 μl Pg-LPS at 10 μg/μl was directly injected twice a week into the interdental region between maxillary molars of C57BL/6J mice using a Hamilton1700 series syringe according to our previously published studies. 100 μl of HCA at 0.5 μM was administrated I.P. three time a week. […] It was also tested whether HCA affects the composition of the microbiome in vivo. For this purpose, high fat diet-induced obese (DIO) mice (The Jackson Laboratory) received I.P, administration of 100 μl of HCA at 0.2 and 0.5 μM three times a week for 3 weeks. […]

SMILES: O=C(O)CCCCCO [HCA, 6-hydroxycaproic acid]
- OD600 value of Pg (Pg (ATCC 49417)): significantly reduced
- toxicity (MTT assay) [1]: No toxicity
- transcripts of IL-1β, IL-6, and IL-8 ([2]; HCA at 0.1 μM, 6 hours following PG-LPS challenge at 0.1 μg/mL): significantly downregulated
- protein levels of IL-6 and IL-8 ([2]; HCA at 0.1 μM, supernatant, after 24 hrs): significantly reduced
- transcripts of IL-1β, 6, and 8 ([2]; HCA at 0.1 and 1.0 μM, Pg-LPS at 100 ng/ml, after 6 hrs): significantly downregulated
- proinflammatory cytokines (IL-6 transcript and IL-6 protein in supernatants) ([2]; at 0.1 μg after Pg-LPS challenge): modulate

Source: patent US20230277483A1, “COMPOSITIONS AND METHODS TO TREAT INFLAMMATION” (University of Iowa Research Foundation, priority 2022, published 2023)
